Results on one molecule are retold here after patent US20250276996A1, “CATIONICALLY-ENFRAMED HIGH DENSITY AROMATIC PEPTIDES” (Research Foundation of the City University of New York, priority 2022, published 2025).

“Also recorded” adds a separate entry of the source. Non-standard residues stand in square brackets, D forms with d. Residues, ends and D or L forms follow the SMILES beside them. *: point of attachment. Biotin = O=C1N[C@H]2[C@H](CS[C@H]2CCCCC(=O)*)N1

For orientation: EC50 means the midpoint of the concentration-response curve.

In test [1] the test system is antimycin-induced scratching. As to the kind of experiment: Topical antimycin-induced scratching. Type of test: in vivo, C57BL/6J mice. To be noted: 100 μM topical with 200 μM antimycin, 60 min. The procedure:
However, antimycin-induced scratching in mice was […] by biotin-free HDAP2. Dermal administration of antimycin, a mitochondrial Complex III irreversible inhibitor, is known to induce ROS formation and oxidative stress in C fibers of sensory neurons, resulting in severe scratching in mice. Biotin-HDAP2 and biotin-free HDAP2 were tested to see if either can inhibit topical antimycin-induced itching in 12 months old C57BL/6J mice. […] Specifically, 200 μM of topical antimycin in methanol induced itching, which was monitored for 60 min. […] Error bars represent SEM (n=3) **P<0.001. Topical administration of 100 μM of biotin-free HDAP2 with antimycin increased scratching by 2.5 fold. Error bars represent SEM (n=3) ***P<0.0001.

The subject of test [2] is retinal ganglion cells (RGCs). The experiment in a line: Optic nerve crush (ONC), retinal ganglion cell survival. The class given is in vivo, C57BL/6 mice. The following applies: for Average density of retinal ganglion cells: 3 mg/kg IP daily 14 days. The text has this: Quantification of Retinal Ganglion Cell Survival: To test whether the protective effects of biotin-HDAP2 in serum-starved cultured cells extended to neurons in vivo, the survival of RGCs following optic nerve crush (ONC) in the presence and absence of the peptide was studied. To control for density differences of RGCs across the retina, values were standardized by comparing ratios of RBPMS-labeled RGCs with the densities of starburst amacrine cells labeled by choline acetyltransferase (ChAT). Starburst amacrine cells, like other displaced amacrine cells, are unaffected by ONC in the short-term. In control tissue, displaced starburst amacrine cells accounted for about […] of cells in the ganglion cell layer and ratios of RBPMS labeled cells to ChAT neurons was about 4 to 1 in central retina and 3 to 1 at other eccentricities (FIG. 11B).
Optic Nerve Crush Procedure: Adult mice (2-6 mo.) were anesthetized with a cocktail of ketamine (85 mg/kg) and xylazine (20 mg/kg) (IP), the corneas were numbed with a drop of 0.5% proparacaine hydrochloride ophthalmic solution (Falcon Pharmaceuticals), and the animals were positioned under a Nikon dissecting microscope, dorsolaterally either on the left or right sides. The dorsomedial conjunctiva was cut with microdissection spring scissors, the […] muscles were separated, and the eyeball was slightly retracted to expose the optic nerve. Fine, self-closing forceps (Roboz, RS-5027) were used to clamp the optic nerve 1-2 mm behind the globe, for approximately 3 seconds without applying additional tension. The eye was repositioned within the orbit, the conjunctiva reflected over the extraocular eye muscles and the incision covered with ophthalmic polymyxin B-neomycin-bacitracin ointment (3.5 mg/gm, Bausch and Lomb). The optic nerves from the contralateral eye were untouched and used as untreated controls. Following the crush procedure, mice were given a subcutaneous injection of extended-release buprenorphine (0.05 mg/kg, Ethiqua XR) for analgesia and placed on a heating pad until awake and grooming, at which point they were returned to their home cages. Half the animals were given biotin-HDAP2 immediately following the procedure and then daily thereafter (3 mg/kg, IP) for 14 days.
Immunohistochemistry: Fixed retinas were labeled with cell markers using conventional immunohistochemical protocols to identify cells and structures associated with biotin-HDAP2, and to identify retinal ganglion cells and starburst amacrine cells to assess cell survival following optic nerve crush. Retinas and sections were blocked and permeabilized with 4% normal donkey serum in 0.1M Tris or phosphate buffers with 0.5% Triton-X for 1 hour and then incubated overnight (for sections) or for 3 days (for wholemounts) at 4° C. in selected primary antibodies, and 2% normal donkey serum in the same buffer. The tissue was rinsed 3×10 minutes with buffer and then incubated with secondary antibodies for one hour at room temperature (sections) or overnight at 4° C. for wholemounts. Antibodies and markers used were rabbit anti-RBPMS (1:200; Invitrogen, PA5-31231) to label all retinal ganglion cells; goat anti-choline acetyltransferase (ChAT 1:100; EMD Millipore, AB144P) to label starburst amacrine cells; rabbit anti-glutamine synthetase (1:200; Invitrogen, PA1-46165) to label Müller cells; and rabbit anti-cox4 (1:200; Invitrogen, PA5-29992) to identify mitochondria. Secondary antibodies were raised in donkey and conjugated with either Alexa Fluor 488, 594 or 647 (1:500, Life Sciences). To identify the distribution of cell nuclei, and to delineate retinal layers, tissue was labeled with the nuclear stain ToPro3 (1:1000; Invitrogen) for 15 minutes. After staining, sections and retinas were rinsed in buffer and coverslipped in Vectashield mounting media (Vector Labs) to prevent photobleaching. […]

For test [3], the system named is MDBK cells. As to the kind of experiment: NAO binding to mitochondria in MDBK cells. The class given is cell-based, bovine. The following applies: NAO 1 μM, biotin-HDAP2 10 μM.
Test [4] relates to MDBK cells. As to the kind of experiment: Serum starvation cell death, methylene blue staining. Type of test: cell-based, bovine. To be noted: serum-free media 5-7 days, read-out: EC50, prevention of cell death. The procedure: MDBK cells were incubated in serum-free media for 5-7 days in the presence or absence of different concentrations of biotin-HDAP2. At the end of the incubation period, media was removed, the cells were fixed in 4% PFA and then stained with Methylene Blue Loeffler for 30 minutes. Images were obtained using a Tiffen Zoom Camera, interfaced with PC Image, and analyzed using ImageJ NIH software. Experiments were conducted 5 times in triplicates for each experimental condition. Biotin-HDAP2 prevented cell death in a dose-dependent manner with EC50 of about 300 nM (FIG. 4).

As to `N=C(N)NCCC[C@@H](NC(=O)[C@H](Cc1ccccc1)NC(=O)[C@H](Cc1ccccc1)NC(=O)[C@@H](CCCNC(=N)N)NC(=O)CCCC[C@@H]1SC[C@@H]2NC(=O)N[C@@H]21)C(N)=O` [biotin-HDAP2, Biotin-dArg-Phe-Phe-dArg-NH2] (Biotin-[dR]FF[dR]-NH2), in test [1], the “effect on antimycin-induced scratching” value is given as “inhibited scratching”. Further, the “protection of retinal ganglion cells following optic nerve crush” value in test [2] (3 mg/kg) is given as “protected retinal ganglion cells following optic nerve crush; also recorded: significantly greater survival of retinal ganglion cells”. Further, the “Average density of retinal ganglion cells” value is 446.1 ± 42.92 cells/mm2 in test [2] (Central, ONC); 694.5 ± 52.61 cells/mm2 in test [2] (Midperipheral, ONC); 565.4 ± 53.61 cells/mm2 in test [2] (Peripheral, ONC). The “expression of RBPMS compared to untreated” value in test [2] (ONC) is “doubled”. In test [2] (ONC, treated), the “ratio of RGCs to ChAT cells (to 1)” value was found to be 0.70. The “more RBPMS labeled cells than untreated animals” value in test [2] (ONC, treated daily) came out at 40%. Moreover, the “expression of RBPMS (mean pixel intensity)” value in test [2] (ONC, treated, n=23) is reported as 9.8±0.78 arbitrary fluorescence units. Also, the “survival of retinal ganglion cells greater compared to untreated controls” value in test [2] (ONC, intraperitoneal or subcutaneous administration) worked out at 50%. For the same molecule, the entries for the “percent increase in RBPMS labeled cells vs untreated ONC” value in test [2] (central retina), in test [2] (midperipheral retina) and in test [2] (periphery) were 18%, 38% and 50%, respectively. For the same molecule, the “NAO binding to mitochondria” value in the test on MDBK cells [3] was “inhibited NAO binding to mitochondria in MDBK cells”. In the test with MDBK cells [4], the EC50 is approximately 300 nM.
